Biological target: human truncated cGAS enzyme (147-522 human cGAS) (Homo sapiens (Human), UniProt Q8N884)
Assay: Quantification of cGAS protein inhibition (cGAMP formation, LC-MS/MS)
Type: biochemical
Conditions: 30 nM enzyme, 45 bp dsDNA (ISD) 5 μM, GTP and ATP 0.5 mM each, 1 h at room temperature; potential mixture of co-existing tautomers and/or racemates
Protocol: Example 52: Quantification of cGAS Protein Inhibition
A reagent buffer was prepared in filtered and autoclaved water according to the following: • 50 mM Tris-buffer pH 7.5 (1 M Tris-buffer pH 7.5, Invitrogen, Cat. No. 15567-027); • 50 mM NaCl (5 M NaCl, Sodium Chloride Solution, Sigma, 59222C-); • 5 mM MgCl2 (1 M MgCl2, Sigma, M1028); • 0.1 mM ZnCl2 (Zinc Chloride [7646-85-7], powder, Cell Culture Tested, Sigma, Z-0152); and • 0.001% Tween 20 (TWEEN 20, Sigma Aldrich, P1379-).
A buffer for the cGAS enzyme was prepared in filtered and autoclaved water according to the following: • 50 mM Tris-buffer pH 7.5; • 5 mM MgCl2; and • 0.001% Tween 20.
Compounds were dispensed to a […]. The human truncated cGAS enzyme (4.2 mg/mL 147-522 human cGAS, MW 43,909 g/mol) was stored in 50 mM Tris, 500 mM NaCl, 5% (v/v) glycerol at pH 8 and diluted in the cGAS buffer enzyme shortly before use. The enzyme solution was transferred into the reagent buffer to give a final concentration of 30 nM. The reaction was started by mixing the enzyme with ISD (a 45 bp double stranded DNA, MW 27,670 g/mol, 5 mM), GTP and ATP to a final concentration of 5 μM, 0.5 mM and 0.5 mM respectively in a final volume of 10 μl. The reaction plates were then centrifuged at 1000 rpm for 1 minute and incubated at room temperature for 1 h. After 1 h of incubation, [^15N5]-2′3′-cGAMP to a final concentration of 200 nM and 30 μL of 100% acetonitrile/0.175% of TFA were added to the reaction mixture. The plates were centrifuged at 1000 rpm for 1 minute before being sealed for 3 seconds at 170° C. using a ThermoScientific sealer (ALPS™ 50V) and an aluminum sealing cover (Pierce Seal, 4titude, Product Code: 4TI-0531).
The concentration of cGAMP was measured on a LC-MS/MS system consisting of a THERMO Dionex Ultimate LC system with a high pressure pump, an autosampler, a column heating compartment (Reinach, Switzerland) and a SCIEX Triple Quad 5500 (Framingham, MA, USA) mass spectrometer for detection. The sample plates were centrifuged for 10 minutes at 2000 rpm. Up to three plates were placed in the autosampler for injection. An aliquot of 10 μL of each sample was injected on an XBridge BEH Amide 3.5 μm, 2.1×50 mm column (P/N 186004859) with an XBridge BEH Amide 5 μm 2.1×5 mm VanGuard Cartridge (P/N 186007760) pre-column (both WATERS, MA, USA) held at 40° C. An isocratic flow of 1.0 mL/min solvent (60% ACN, 8 mM ammonium acetate, 5 mM ammonium hydroxide, 0.04% acetic acid) was applied and sprayed into the ion source of the mass spectrometers. The MS parameters were optimized based on the properties of the compounds to be detected and run in positive multi-reaction mode (MRM) based on the mass transitions. LC and MS parameters were also optimized to allow for a sample-to-sample measuring time of approximately 75 sec and a run time of 8 hours per 384-well plate. All data were analyzed with Excel; and the dose response curves were generated using the auto fitting function of XLfit. The IC50 was determined by plotting the cGAMP concentration ratio (cGAMP divided by the internal standard [^15N5]-2′3′-cGAMP) versus the concentration of compound.

Sequence of human truncated cGAS enzyme (147-522 human cGAS) (Q8N884 147-522): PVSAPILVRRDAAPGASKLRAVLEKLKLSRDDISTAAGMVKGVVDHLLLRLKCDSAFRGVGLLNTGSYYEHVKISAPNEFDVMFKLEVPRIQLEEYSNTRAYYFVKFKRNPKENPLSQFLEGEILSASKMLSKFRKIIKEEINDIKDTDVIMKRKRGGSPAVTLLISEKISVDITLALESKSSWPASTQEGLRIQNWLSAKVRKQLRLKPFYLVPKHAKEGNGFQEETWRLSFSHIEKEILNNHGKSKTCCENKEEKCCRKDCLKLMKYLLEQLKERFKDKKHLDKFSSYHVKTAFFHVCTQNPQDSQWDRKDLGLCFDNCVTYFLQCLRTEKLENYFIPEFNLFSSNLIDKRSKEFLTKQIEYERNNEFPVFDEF

SMILES | IC50
COc1nc2c(-n3ccnc3)c(-c3nnc(CN(C)C)[nH]3)n(C)c2cc1Cl [Example 51, 1-(5-(6-chloro-3-(1H-imidazol-1-yl)-5-methoxy-1-methyl-1H-pyrrolo[3,2-b]pyridin-2-yl)-4H-1,2,4-triazol-3-yl)-N,N-dimethylmethanamine] | 308 nM
COc1nc2c(-c3cn[nH]c3)c(-c3nnc(C(=O)N(C)C)[nH]3)n(C)c2cc1Cl [Example 43, 5-(6-chloro-5-methoxy-1-methyl-3-(1H-pyrazol-4-yl)-1H-pyrrolo[3,2-b]pyridin-2-yl)-N,N-dimethyl-4H-1,2,4-triazole-3-carboxamide] | 98 nM
COc1nc2c(-n3ccnc3)c(-c3nnc(C(F)(F)F)[nH]3)n(C)c2cc1Cl [Example 45] | 384 nM
COCC(c1nnc(-c2c(-n3ccnc3)c3nc(OC)c(Cl)cc3n2C)[nH]1)N(C)C (centres unmarked) [Example 36, 1-(5-(6-chloro-3-(1H-imidazol-1-yl)-5-methoxy-1-methyl-1H-pyrrolo[3,2-b]pyridin-2-yl)-4H-1,2,4-triazol-3-yl)-2-methoxy-N,N-dimethylethan-1-amine] | 454 nM
COc1nc2c(-n3ccnc3)c(-c3nnc(C(OC)C(F)(F)F)[nH]3)n(C)c2cc1Cl (centres unmarked) [Example 26, 6-chloro-3-(1H-imidazol-1-yl)-5-methoxy-1-methyl-2-(5-(2,2,2-trifluoro-1-methoxyethyl)-4H-1,2,4-triazol-3-yl)-1H-pyrrolo[3,2-b]pyridine] | 107 nM
COc1nc2c(-c3cn[nH]c3)c(-c3nnc(C(F)(F)F)[nH]3)n(C)c2cc1Cl [Example 1, 6-chloro-5-methoxy-1-methyl-3-(1H-pyrazol-4-yl)-2-(5-(trifluoromethyl)-4H-1,2,4-triazol-3-yl)-1H-pyrrolo[3,2-b]pyridine] | 76 nM
COc1nc2c(-c3cn[nH]c3)c(-c3nnc(C(C)=O)[nH]3)n(C)c2cc1Cl [Example 42, 1-(5-(6-chloro-5-methoxy-1-methyl-3-(1H-pyrazol-4-yl)-1H-pyrrolo[3,2-b]pyridin-2-yl)-4H-1,2,4-triazol-3-yl)ethan-1-one] | 66 nM
COc1nc2c(-c3cn[nH]c3)c(-c3nnc(C(C)(F)F)[nH]3)[nH]c2cc1Cl [Example 3, 6-chloro-2-(5-(1,1-difluoroethyl)-4H-1,2,4-triazol-3-yl)-5-methoxy-3-(1H-pyrazol-4-yl)-1H-pyrrolo[3,2-b]pyridine] | 32 nM
COCC(c1nnc(-c2c(-c3cn[nH]c3)c3nc(OC)c(Cl)cc3n2C)[nH]1)N(C)C (centres unmarked) [Example 37, 1-(5-(6-chloro-5-methoxy-1-methyl-3-(1H-pyrazol-4-yl)-1H-pyrrolo[3,2-b]pyridin-2-yl)-4H-1,2,4-triazol-3-yl)-2-methoxy-N,N-dimethylethan-1-amine] | 123 nM
COc1nc2c(-c3cn[nH]c3)c(-c3nnc(C(=O)N(C)C)[nH]3)[nH]c2cc1Cl [Example 16, 5-(6-chloro-5-methoxy-3-(1H-pyrazol-4-yl)-1H-pyrrolo[3,2-b]pyridin-2-yl)-N,N-dimethyl-4H-1,2,4-triazole-3-carboxamide] | 30 nM
COc1nc2c(-n3ccnc3)c(-c3nnc(C(=O)N(C)C)[nH]3)n(C)c2cc1Cl [Example 17, 5-(6-chloro-3-(1H-imidazol-1-yl)-5-methoxy-1-methyl-1H-pyrrolo[3,2-b]pyridin-2-yl)-N,N-dimethyl-4H-1,2,4-triazole-3-carboxamide] | 116 nM
COCC(F)(F)c1nnc(-c2c(-n3ccnc3)c3nc(OC)c(Cl)cc3n2C)[nH]1 [Example 30, 6-chloro-2-(5-(1,1-difluoro-2-methoxyethyl)-4H-1,2,4-triazol-3-yl)-3-(1H-imidazol-1-yl)-5-methoxy-1-methyl-1H-pyrrolo[3,2-b]pyridine] | 186 nM
COc1nc2c(-n3ccnc3)c(-c3nnc(C(F)(F)F)[nH]3)[nH]c2cc1Cl [Example 46, 6-chloro-3-(1H-imidazol-1-yl)-5-methoxy-2-(5-(trifluoromethyl)-4H-1,2,4-triazol-3-yl)-1H-pyrrolo[3,2-b]pyridine] | 80 nM
COc1nc2c(-n3ccnc3)c(-c3nnc(F)[nH]3)n(C)c2cc1Cl [Example 33, 6-chloro-2-(5-fluoro-4H-1,2,4-triazol-3-yl)-3-(1H-imidazol-1-yl)-5-methoxy-1-methyl-1H-pyrrolo[3,2-b]pyridine] | 332 nM
COc1nc2c(-c3cn[nH]c3)c(-c3nnc(C(C)=O)[nH]3)[nH]c2cc1Cl [Example 6, 1-(5-(6-chloro-5-methoxy-3-(1H-pyrazol-4-yl)-1H-pyrrolo[3,2-b]pyridin-2-yl)-4H-1,2,4-triazol-3-yl)ethan-1-one] | 66 nM
COCC(O)c1nnc(-c2c(-n3ccnc3)c3nc(OC)c(Cl)cc3n2C)[nH]1 (centres unmarked) [Example 29, 1-(5-(6-chloro-3-(1H-imidazol-1-yl)-5-methoxy-1-methyl-1H-pyrrolo[3,2-b]pyridin-2-yl)-4H-1,2,4-triazol-3-yl)-2-methoxyethan-1-ol] | 295 nM
COc1nc2c(-c3cn[nH]c3)c(-c3nnc(F)[nH]3)n(C)c2cc1Cl [Example 9, 6-chloro-2-(5-fluoro-4H-1,2,4-triazol-3-yl)-5-methoxy-1-methyl-3-(1H-pyrazol-4-yl)-1H-pyrrolo[3,2-b]pyridine] | 267 nM
COc1nc2c(-n3ccnc3)c(-c3nnc(/C(C)=N/OCCO)[nH]3)n(C)c2cc1Cl [Example 40, (E/Z)-1-(5-(6-chloro-3-(1H-imidazol-1-yl)-5-methoxy-1-methyl-1H-pyrrolo[3,2-b]pyridin-2-yl)-4H-1,2,4-triazol-3-yl)ethan-1-one O-(2-hydroxyethyl)oxime] | 101 nM
Cn1c(-c2nnc(C(F)(F)F)[nH]2)c(-c2cn[nH]c2)c2nc(O)c(Cl)cc21 [Example 50, 6-chloro-1-methyl-3-(1H-pyrazol-4-yl)-2-(5-(trifluoromethyl)-4H-1,2,4-triazol-3-yl)-1H-pyrrolo[3,2-b]pyridin-5-ol] | 741 nM
COc1nc2c(-c3cn[nH]c3)c(-c3nnc[nH]3)n(C)c2cc1Cl [Example 14, 6-chloro-5-methoxy-1-methyl-3-(1H-pyrazol-4-yl)-2-(4H-1,2,4-triazol-3-yl)-1H-pyrrolo[3,2-b]pyridine] | 3520 nM

Source: patent US20240051954A1, “PYRROLO[3,2-B]PYRIDINE DERIVATIVES USEFUL IN TREATING CONDITIONS ASSOCIATED WITH CGAS” (NOVARTIS AG, priority 2020, published 2024)
